Values of other authors in patent US20110038852A1, “ANTIVIRALS THAT TARGET TRANSPORTERS, CARRIERS, AND ION CHANNELS” (3-V BIOSCIENCES, INC., priority 2009, published 2011).

Key:
[1] = test system: rhinoviral infections; details: volunteers, clinical trials
[2] = test system: rhinovirus infections

For `Cc1cc(CCCOc2c(C)cc(-c3noc(C(F)(F)F)n3)cc2C)on1` [Pleconaril], the “mucus secretions and illness-associated symptoms” value [1] is listed as “significant decrease”.
For Interferon-alpha, the side effects ([2]; human, in vivo) is listed as “nasal bleeding” and the “effect against rhinovirus infections” value ([2]; used intranasally) is listed as “effective”.
